# Data from patent US20170107254A1, “Modified Antimicrobial Peptides” (priority 2014, published 2017).
# Where two headings read alike, the source gives them in different places. No end group written: not given here.
# Key:
# [1] = tested on: A. fumigatus (AM2002/066 and NPCF2939); test: Antifungal activity (CLSI M38-A2 micro-broth dilution) and MFC; assay type: cell-based; conditions: for A. fumigatus MIC100 / MIC: Table 5, average of two strains, 48 h at 30° C.; for MIC: read-out: A. fumigatus MIC100
# Method: (§1) The fungal strains A. fumigatus (AM2002/066 and NPCF2939), A. flavus (01-1554 and NPCF7117) and A. niger (01-1494 and NCPF2022) were obtained from the National Collection of Pathogenic Fungi (NPCF) or American Type Culture Collection (ATCC). Fungal strains were grown on SAB slopes for 72 h at 30° C. before experimental use. C. albicans strain SC5314 was purchased from ATCC and grown overnight on SAB slopes at 30° C. before experimental use.
# (§2) The antifungal activity of peptides was examined using the conditions of the Clinical Laboratory Standards Institute document M38-A2. Peptide antifungal activity was assessed by micro-broth dilutions with a serial two-fold dilution of test compound prepared in a 96 well plate from 0 to maximum concentration to be tested (here 2× concentration required, 250 μg/ml). Fungal suspensions were prepared by flooding slopes with PBS and filtering through gauze to collect spores. The suspension was then adjusted to a density of 2×10^4 colony-forming units/ml in 2× culture medium (RPMI 1640, 0.165 M MOPS, pH 7.4 with L-glutamine, without NaHCO3 medium) and an equal volume was added to the different peptide concentrations in the 96 well plate. Plates where incubated at 30° C. for 48 h before growth inhibition was determined by measuring absorbance at 530 nm (Biotek Powerwave). Antifungal activity was defined by the minimum inhibitory concentration (MIC), the concentration at which no growth was observed.
# (§3) For examining the minimum fungicidal concentration (MFC) 10 μl of fungal and peptide suspension was transferred from every well to the corresponding well in a sterile 96-well plate containing fresh culture medium (RPMI-1640, 0.165 M MOPS, pH 7.4 with L-glutamine, without NaHCO3 medium). Aspergillus was then incubated for a further 48 h after which absorbance was measured at 530 nm. MFC was defined as the concentration at which no growth was observed.
# [2] = tested on: A. flavus (01-1554 and NPCF7117); test: as above; assay type: cell-based; conditions: Table 5, average of two strains, 48 h at 30° C.; for MIC: Aspergillus flavus, read-out: A. flavus MIC100
# Method: as §1, §2, §3
# [3] = tested on: A. niger (01-1494 and NCPF2022); test: as above; assay type: cell-based; conditions: Table 5, average of two strains, 48 h at 30° C.; for MIC: Aspergillus niger, NCPF2022, read-out: A. niger MIC100
# Method: as §1, §2, §3
# A549 cells = conditions: lipid alone at 200 μg/ml
# Method: The cell lines A549 (Human Lung Adenocarcinoma Epithelial Cell Line) and HepG2 (Human Hepatocellular Carcinoma Cell Line) were purchased from ATCC. A549 cells were maintained in F-12K medium (Gibco) containing 10% foetal bovine serum (Life Technologies) and 1% penicillin/streptomycin (Life Technologies) and HepG2 cells were maintained in Dulbecco's modified eagles medium (Gibco) containing 10% foetal bovine serum (Life Technologies), penicillin/streptomycin (Life Technologies) and 1% 0.01 mg/ml human transferrin (Sigma). Both were incubated at 37° C. with 5% CO2 until cells reached >80% confluence before splitting or experimental use.
# Before exposure to peptides, the plate was incubated at 37° C. with 5% CO2 overnight to allow cells adhere. […] Medium was removed from the plate containing cells and peptide dilutions were transferred to cells and incubated for a further 3 h at 37° C. with 5% CO2. Cytotoxicity was determined by LIVE/DEAD® Viability/Cytotoxicity kit (Invitrogen Life Technologies), a working solution of 2 μM calcein AM and 4 μM EthD-1 and in conjunction Alamar Blue at a final concentration of 10% was added to the wells. Cells without peptides were the negative control and 1% DMSO was the positive control. Cells were incubated for 3 h again at 37° C. with 5% CO2.
# [4] = tested on: human red blood cells (hRBC); test: Haemolysis of human red blood cells; conditions: lipid alone at 200 μg/ml
# Method: Peptides were tested for their haemolytic activity against human red blood cells (hRBC). Fresh hRBCs collected in BD Vacutainer® tubes with EDTA were rinsed 3 times with PBS (pH 7.4) by centrifugation for 10 min at 800 g and resuspended, 1 in 10 diluted with PBS. […] Release of haemoglobin was then calculated by transferring supernatant to a flat bottomed 96-well plate and measuring absorbance at 578 nm. hRBCs with no peptides added and H2O provided the controls.
# C. albicans SC5314 [5] = assay type: cell-based; conditions: RPMI-1640, 48 h data
# Method: The purity of the peptide was taken into account during the preparation to ensure preparation of the correct concentration. Peptides solutions were stored at −20° C. until required.
# The antifungal activity of the peptides was based on that of the Clinical Laboratory Standards Institute document M27-A3. A serial two-fold dilution of peptide was prepared across a 96-well microtitre plate with concentration ranging from 2 mg/ml to […]; upon addition of the cells these concentrations shall be halved, with additional wells lacking peptide as a 0 mg/ml control. An addition control lacking culture was also prepared.
# To prepare the fungal inoculum, an overnight culture of C. albicans SC5314 was grown at 30° C. on Sabouraud dextrose agar. Cells were washed from the surface of the agar and diluted to the equivalent of the 0.5 MacFarland standard. A further 1:50 dilution of the cells into 2×RPMI-1640 was carried out, and an equal volume was added to the different peptide concentrations in the microtitre plate. To measure the metabolic activity of the cells, 10 μl of a 0.25% solution of resazurin was added to each well. Plates were incubated in the dark at 30° C. for 48 h with growth inhibition determined by measuring absorbance at 530 nm/590 nm at 0 h, 24 h and 48 h on a BioTek PoweWave. Antifungal activity was defined by the minimum inhibitory concentration (MIC), the concentration at which no growth was observed.
# C. albicans SC5314 [6] = assay type: cell-based; conditions: RPMI-1640 and 25% plasma, 24 h data
# Method: A peptide “master” plate was prepared by the addition of 200 μl of the 20 mg/ml stock to column 11 on a microtitre plate. One hundred microliters of sterile water was added to the remaining wells. Serial two-fold dilutions of the peptides were carried out across the plate from right to left. From the “master” plate, 25 μl of peptides were added to corresponding wells on three “working” plates. To each well on the “working” plate, 25 μl human plasma was added, resulting in the halving of both the concentration of the peptide in the working plate and human plasma. Column 12 contained the controls.
# An overnight culture of C. albicans SC5314 was grown at 30° C. on Sabouraud dextrose agar and the cells were washed from the surface of the agar and diluted to the equivalent of the 0.5 MacFarland standard. A further 1:50 dilution of the cells into 2×RPMI-1640 was carried out, and 50 μl of the cell suspension was added to each well of the plate. […] Plates were incubated at 30° C. for 48 h with growth inhibition determined by measuring absorbance at 530 nm at 0 h, 24 h and 48 h on a BioTek PoweWave. Antifungal activity was defined by the minimum inhibitory concentration (MIC), the concentration at which no growth was observed.
# C. albicans SC5314 [7] = assay type: cell-based
# Method: 1×RPMI-1640 Buffered with Citrate Phosphate Buffer
# Citrate phosphate buffer was prepared by mixing 0.1 M citric acid and 0.2 M dibasic sodium phosphate dodecahydrate in the proportions indicated in the Table 2 and the volume adjusted to 90 ml with dH2O.
# pH buffered medium was prepared by dissolving 1.04 g RPMI-1640 premix powder in 10 ml citrate phosphate buffer. The volume was then adjusted to 40 ml with dH2O and the pH adjusted by addition of the acid or base. The volume was adjusted to 50 ml with dH2O. The medium was then filter sterilized by vacuum filtration through a 0.2 μm filter and stored at 4° C. and kept for up to 2 weeks.
# The pH of RPMI-1640 was altered, using citrate phosphate buffer, to reflect the more acidic pH environment in the oral cavity. NP319 and NP377 were active against C. albicans SC5314 from pH 5.5-7.0 (Table 2). For all AMPs tested the optimum pH for activity was pH 5.5. NP377 maintained activity at 2 μg/ml from pH 5.5-7 with reduced activity at pH 5.
# C. albicans SC5314 [8] = tested on: C. albicans SC5314
# Method: (B) Efficacy of AMPs of same length was evaluated by MIC after 24 incubation at 37° C. Data is expressed as percentage of the positive growth controls. Data is the mean±standard error of the mean (n=3).
# The efficacy of AMPs was determined versus C. albicans SC5314 before evaluating the effect of pH on activity.
# [9] = neutral pH, no saliva, 24 h incubation at 37° C.
compound,measurement,setting,value
"CC(=O)O [Acetic (C2), Acetic]",inhibition at 200 µg/mL,"[1]; Aspergillus fumigatus, lipid alone at 200 μg/ml, 48 h, read-out: % Growth Inhibition of A. fumigatus at 48 h",5%
C[C@@H]1[C@H](O)[C@@H](C)/C=C/C=C/C=C/C=C/C=C/C=C/C=C/[C@H](O[C@@H]2O[C@H](C)[C@@H](O)[C@H](N)[C@@H]2O)C[C@@H]2O[C@](O)(C[C@@H](O)C[C@@H](O)[C@H](O)CC[C@@H](O)C[C@@H](O)CC(=O)O[C@H]1C)C[C@H](O)[C@H]2C(=O)O [Amphotericin B],A. flavus MIC100,[2],1.5 µg/mL
same,A. fumigatus MIC100,[1],1 µg/mL
same,A. niger MIC100,[3],<1 µg/mL
"CCCC(=O)O [Butanoic (C4), Butanoic]",% Growth Inhibition of A. fumigatus at 48 h,"[1]; lipid alone at 200 μg/ml, 48 h",35%
same,% A549 Cell Death at 3 h,A549 cells,0%
same,% Haemolytic Activity at 3 h,[4],30%
CC[C@H](C)C[C@H](C)CCCCCCCCC(=O)N[C@H]1C[C@@H](O)[C@@H](NCCN)NC(=O)[C@@H]2[C@@H](O)CCN2C(=O)[C@H]([C@H](O)CCN)NC(=O)[C@H]([C@H](O)[C@@H](O)c2ccc(O)cc2)NC(=O)[C@@H]2C[C@@H](O)CN2C(=O)[C@H]([C@@H](C)O)NC1=O [Caspofungin],MIC,[2],128 µg/mL
same,MIC,[1]; Aspergillus fumigatus,64 µg/mL
same,MIC,[3],16 µg/mL
"CCCCCCCCCC(=O)O [Decanoic (C10), Decanoic]",% Growth Inhibition of A. fumigatus at 48 h,"[1]; lipid alone at 200 μg/ml, 48 h",20%
same,% A549 Cell Death at 3 h,A549 cells,25%
same,% Haemolytic Activity at 3 h,[4],10%
"CCCCCCCCCCCC(=O)O [Dodecanoic (C12), Dodecanoic]",% Growth Inhibition of A. fumigatus at 48 h,"[1]; lipid alone at 200 μg/ml, 48 h",45%
same,% A549 Cell Death at 3 h,A549 cells,20%
same,% Haemolytic Activity at 3 h,[4],20%
OC(Cn1cncn1)(Cn1cncn1)c1ccc(F)cc1F [Fluconazole],MIC,[2],64 µg/mL
same,MIC,[1]; Aspergillus fumigatus,64 µg/mL
same,MIC,[3],64 µg/mL
"CCCCCC(=O)O [Hexanoic (C6), Hexanoic]",% Growth Inhibition of A. fumigatus at 48 h,"[1]; lipid alone at 200 μg/ml, 48 h",50%
same,% A549 Cell Death at 3 h,A549 cells,0%
same,% Haemolytic Activity at 3 h,[4],40%
CCC(C)n1ncn(-c2ccc(N3CCN(c4ccc(OCC5COC(Cn6cncn6)(c6ccc(Cl)cc6Cl)O5)cc4)CC3)cc2)c1=O (stereo not shown) [Itraconcazole],A. flavus MIC100,[2],1 µg/mL
same,A. fumigatus MIC100,[1],<1 µg/mL
same,A. niger MIC100,[3],<1 µg/mL
N=C(N)NCCC[C@H](NC(=O)[C@H](CCCNC(=N)N)NC(=O)[C@H](CCCNC(=N)N)NC(=O)[C@H](CCCNC(=N)N)NC(=O)[C@H](CCCNC(=N)N)NC(=O)[C@H](CCCNC(=N)N)NC(=O)[C@H](CCCNC(=N)N)NC(=O)[C@H](CCCNC(=N)N)NC(=O)[C@H](CCCNC(=N)N)NC(=O)[C@H](CCCNC(=N)N)NC(=O)[C@H](CCCNC(=N)N)NC(=O)[C@H](CCCNC(=N)N)NC(=O)[C@H](CCCNC(=N)N)NC(=O)[C@@H](N)CCCNC(=N)N)C(=O)O [Novamycin],MIC50,C. albicans SC5314 [5],<2 µg/mL
same,MIC80,C. albicans SC5314 [5],2 µg/mL
same,MIC100,C. albicans SC5314 [5],4 µg/mL
same,MIC50,C. albicans SC5314 [6],78.1 µg/mL
same,MIC80,C. albicans SC5314 [6],156.25 to 312.5 µg/mL
same,MIC100,C. albicans SC5314 [6],312.5 µg/mL
C[C@@H]1[C@H](O)[C@@H](C)/C=C/C=C/CC/C=C/C=C/C=C/C=C/C(O[C@H]2O[C@H](C)[C@@H](O)[C@H](N)[C@@H]2O)CC2O[C@](O)(CC(O)C(O)CCC(O)CC(O)CC(O)CC(=O)O[C@H]1C)CC(O)C2C(=O)O (stereo partly shown) [Nystatin],MIC50,C. albicans SC5314 [7]; pH 4.5,2 µg/mL
same,MIC100,C. albicans SC5314 [7]; pH 4.5,2 µg/mL
same,MIC50,C. albicans SC5314 [7]; pH 5,1 µg/mL
same,MIC100,C. albicans SC5314 [7]; pH 5,1 µg/mL
same,MIC50,C. albicans SC5314 [7]; pH 5.5,1 µg/mL
same,MIC100,C. albicans SC5314 [7]; pH 5.5,1 µg/mL
same,MIC50,C. albicans SC5314 [7]; pH 6,1 µg/mL
same,MIC100,C. albicans SC5314 [7]; pH 6,1 µg/mL
same,MIC50,C. albicans SC5314 [7]; pH 6.5,1 µg/mL
same,MIC100,C. albicans SC5314 [7]; pH 6.5,1 µg/mL
same,MIC50,C. albicans SC5314 [7]; pH 7,1 µg/mL
same,MIC100,C. albicans SC5314 [7]; pH 7,1 µg/mL
"CCCCCCCC(=O)O [Octanoic (C8), Octanoic]",% Growth Inhibition of A. fumigatus at 48 h,"[1]; lipid alone at 200 μg/ml, 48 h",60%
same,% A549 Cell Death at 3 h,A549 cells,5%
"CCCCCCCCCCCCCCCC(=O)O [Palmitic (C16), Palmitic]",% Growth Inhibition of A. fumigatus at 48 h,"[1]; lipid alone at 200 μg/ml, 48 h",0%
same,% A549 Cell Death at 3 h,A549 cells,10%
"CCCCCCCCCCCCCC(=O)O [Tetradecanoic (C14), Tetradecanoic]",% Growth Inhibition of A. fumigatus at 48 h,"[1]; lipid alone at 200 μg/ml, 48 h",15%
same,% A549 Cell Death at 3 h,A549 cells,0%
same,% Haemolytic Activity at 3 h,[4],20%
Palm-dRdRdRdRdRdRdRdRdRdRdRdR-CONH [NP375],MIC100,C. albicans SC5314 [8]; [9],16 µg/mL
"Poly-L-Arg, HCl salt [NP121]",MIC80,C. albicans SC5314 [8]; [9],64 µg/mL
RRRFRFRFRFRRR [NP466],MIC90,"C. albicans SC5314 [8]; SC5314, 24 h",32 µg/mL
same,MIC100,C. albicans SC5314 [8]; [9],did not achieve a MIC100
dHdHdRdRdRdRdRdRdRdRdRdRdRdRdR-CONH [NP376],MIC100,C. albicans SC5314 [8]; [9],2 µg/mL
